Measured values as given in PubChem BioAssay (NCI).
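Cells were grown in 96-well plates and exposed to each compound for 48 hours at five concentrations; endpoints were interpolated linearly between bracketing concentrations, or set to the highest concentration if not reached. GI50 marks 50% less growth. TGI: concentration producing complete growth inhibition.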

Assays:
Experiment in all cases: NCI anticancer screen, dose series, 48 h
786-0 renal = tested on: 786-0 renal
A498 renal = tested on: A498 renal
A549 NSCLC = tested on: A549 NSCLC
ACHN renal = tested on: ACHN renal
BT-549 breast = tested on: BT-549 breast
CAKI-1 renal = tested on: CAKI-1 renal
CCRF-CEM leukemia = tested on: CCRF-CEM leukemia
COLO 205 colon = tested on: COLO 205 colon
DU-145 prostate = tested on: DU-145 prostate
EKVX NSCLC = tested on: EKVX NSCLC
HCC-2998 colon = tested on: HCC-2998 colon
HCT-116 colon = tested on: HCT-116 colon
HCT-15 colon = tested on: HCT-15 colon
HL-60(TB) leukemia = tested on: HL-60(TB) leukemia
HOP-62 NSCLC = tested on: HOP-62 NSCLC
HOP-92 NSCLC = tested on: HOP-92 NSCLC
HS 578T breast = tested on: HS 578T breast
HT29 colon = tested on: HT29 colon
IGROV1 ovarian = tested on: IGROV1 ovarian
K-562 leukemia = tested on: K-562 leukemia
KM12 colon = tested on: KM12 colon
LOX IMVI melanoma = tested on: LOX IMVI melanoma
M14 melanoma = tested on: M14 melanoma
MALME-3M melanoma = tested on: MALME-3M melanoma
MCF7 breast = tested on: MCF7 breast
MDA-MB-231 breast = tested on: MDA-MB-231 breast
MDA-MB-435 = tested on: MDA-MB-435
MOLT-4 leukemia = tested on: MOLT-4 leukemia
NCI-H226 lung = tested on: NCI-H226 lung
NCI-H23 lung = tested on: NCI-H23 lung
NCI-H460 lung = tested on: NCI-H460 lung
NCI-H522 lung = tested on: NCI-H522 lung
NCI/ADR-RES ovarian = tested on: NCI/ADR-RES ovarian
OVCAR-4 ovarian = tested on: OVCAR-4 ovarian
OVCAR-5 ovarian = tested on: OVCAR-5 ovarian
OVCAR-8 ovarian = tested on: OVCAR-8 ovarian
PC-3 prostate = tested on: PC-3 prostate
RPMI-8226 leukemia = tested on: RPMI-8226 leukemia
RXF 393 renal = tested on: RXF 393 renal
SF-268 CNS = tested on: SF-268 CNS
SF-295 CNS = tested on: SF-295 CNS
SF-539 CNS = tested on: SF-539 CNS
SK-MEL-2 melanoma = tested on: SK-MEL-2 melanoma
SK-MEL-28 melanoma = tested on: SK-MEL-28 melanoma
SK-MEL-5 melanoma = tested on: SK-MEL-5 melanoma
SK-OV-3 ovarian = tested on: SK-OV-3 ovarian
SN12C renal = tested on: SN12C renal
SNB-19 CNS = tested on: SNB-19 CNS
SNB-75 CNS = tested on: SNB-75 CNS
SR leukemia = tested on: SR leukemia
SW-620 colon = tested on: SW-620 colon
T-47D breast = tested on: T-47D breast
TK-10 renal = tested on: TK-10 renal
U251 CNS = tested on: U251 CNS
UACC-257 melanoma = tested on: UACC-257 melanoma
UACC-62 melanoma = tested on: UACC-62 melanoma
UO-31 renal = tested on: UO-31 renal

## Cn1ccnc1C(=O)/C=C/c1ccc(NC(=O)c2ccc(F)cc2)cc1
786-0 renal
  GI50: 6.82 µM
  TGI: > 33.3 µM
A498 renal
  GI50: 5.68 µM
  TGI: 17.1 µM
A549 NSCLC
  GI50: 6.75 µM
  TGI: > 33.3 µM
ACHN renal
  GI50: 4.85 µM
  TGI: 11.8 µM
BT-549 breast
  GI50: 1.53 µM
  TGI: 24.7 µM
CAKI-1 renal
  GI50: 1.63 µM
  TGI: > 33.3 µM
CCRF-CEM leukemia
  GI50: 1.46 µM
  TGI: > 33.3 µM
COLO 205 colon
  GI50: 3.39 µM
  TGI: 17.8 µM
DU-145 prostate
  GI50: 1.33 µM
  TGI: > 33.3 µM
EKVX NSCLC
  GI50: 6.27 µM
  TGI: > 33.3 µM
HCC-2998 colon
  GI50: 6.99 µM
  TGI: > 33.3 µM
HCT-116 colon
  GI50: 1.47 µM
  TGI: 12.9 µM
HCT-15 colon
  GI50: 1.38 µM
  TGI: 12.7 µM
HL-60(TB) leukemia
  GI50: 2.9 µM
  TGI: 31.8 µM
HOP-62 NSCLC
  GI50: 5.39 µM
  TGI: 26.8 µM
HOP-92 NSCLC
  GI50: 8.15 µM
  TGI: > 33.3 µM
HS 578T breast
  GI50: 7.06 µM
  TGI: > 33.3 µM
HT29 colon
  GI50: 2.22 µM
  TGI: > 33.3 µM
IGROV1 ovarian
  GI50: 3.72 µM
  TGI: > 33.3 µM
K-562 leukemia
  GI50: 1.1 µM
  TGI: > 33.3 µM
KM12 colon
  GI50: 1.22 µM
  TGI: 10.9 µM
LOX IMVI melanoma
  GI50: 1.31 µM
  TGI: 5.55 µM
M14 melanoma
  GI50: 8.52 µM
  TGI: > 33.3 µM
MALME-3M melanoma
  GI50: 18.1 µM
  TGI: > 33.3 µM
MCF7 breast
  GI50: 1.64 µM
  TGI: > 33.3 µM
MDA-MB-231 breast
  GI50: 6.54 µM
  TGI: > 33.3 µM
MDA-MB-435
  GI50: 3.84 µM
  TGI: > 33.3 µM
MOLT-4 leukemia
  GI50: 6.36 µM
  TGI: > 33.3 µM
NCI-H226 lung
  GI50: 4.76 µM
  TGI: > 33.3 µM
NCI-H23 lung
  GI50: 5.89 µM
  TGI: > 33.3 µM
NCI-H460 lung
  GI50: 1.79 µM
  TGI: 7.85 µM
NCI-H522 lung
  GI50: 5.52 µM
  TGI: 14.2 µM
NCI/ADR-RES ovarian
  GI50: 5.28 µM
  TGI: > 33.3 µM
OVCAR-4 ovarian
  GI50: 6.37 µM
  TGI: > 33.3 µM
OVCAR-5 ovarian
  GI50: 6.3 µM
  TGI: > 33.3 µM
OVCAR-8 ovarian
  GI50: 5.88 µM
  TGI: > 33.3 µM
PC-3 prostate
  GI50: 5 µM
  TGI: > 33.3 µM
RPMI-8226 leukemia
  GI50: 1.15 µM
  TGI: 12.3 µM
RXF 393 renal
  GI50: 3.33 µM
  TGI: 15.3 µM
SF-268 CNS
  GI50: 4.94 µM
  TGI: > 33.3 µM
SF-295 CNS
  GI50: 8.15 µM
  TGI: > 33.3 µM
SF-539 CNS
  GI50: 2.5 µM
  TGI: 10.5 µM
SK-MEL-2 melanoma
  GI50: 7.96 µM
  TGI: > 33.3 µM
SK-MEL-28 melanoma
  GI50: 10.1 µM
  TGI: > 33.3 µM
SK-MEL-5 melanoma
  GI50: 17.6 µM
  TGI: > 33.3 µM
SK-OV-3 ovarian
  GI50: 8.29 µM
  TGI: > 33.3 µM
SN12C renal
  GI50: 6.56 µM
  TGI: > 33.3 µM
SNB-19 CNS
  GI50: 4.96 µM
  TGI: > 33.3 µM
SNB-75 CNS
  GI50: 1.23 µM
  TGI: 28.7 µM
SR leukemia
  GI50: 0.903 µM
  TGI: > 33.3 µM
SW-620 colon
  GI50: 1.39 µM
  TGI: 8.51 µM
T-47D breast
  GI50: 2.02 µM
  TGI: > 33.3 µM
TK-10 renal
  GI50: 10.3 µM
  TGI: > 33.3 µM
U251 CNS
  GI50: 2.92 µM
  TGI: > 33.3 µM
UACC-257 melanoma
  GI50: 17.9 µM
  TGI: > 33.3 µM
UACC-62 melanoma
  GI50: 9.5 µM
  TGI: > 33.3 µM
UO-31 renal
  GI50: 3.43 µM
  TGI: > 33.3 µM
